The results in this text go back to paper PMC7290441 (Viruses, 2020).

The CC50 is the concentration that lowers cell viability or growth by half. A high value points to lower toxicity to the cells. Usually viability stands for a read-out of living cells in per cent, often relative to untreated cells.

Like-named read-outs stand apart in the source and are kept apart here.

Series [1] is described as follows: Cytotoxicity to mock-infected MDCK cells (MTT). The conditions noted are these: dog.
In series [2] the test system is A/Puerto Rico/8/1934 (H1N1). The series is described as follows: microbe, parasite or virus in culture. The conditions noted are these: Influenza A virus, H1N1, MDCK, 72 h, read-out: EC50 against A/Puerto Rico/8/1934 (H1N1).
The subject of series [3] is A/Brisbane/59/2007 (H1N1). Put plainly: microbe, parasite or virus in culture. The conditions noted are these: Influenza A virus, H1N1, MDCK, 72 h, read-out: EC50 against A/Brisbane/59/2007 (H1N1).
Series [4] concerns influenza A viruses (PR8 and HK). Put plainly: microbe, parasite or virus in culture. The conditions noted are these: PR8, MDCK, read-out: viability of infected MDCK cells.
Series [5] deals with A/California/7/2009 (H1N1). The series is described as follows: microbe, parasite or virus in culture. As to conditions: Influenza A virus, H1N1, MDCK, 72 h, read-out: EC50 against A/California/7/2009 (H1N1).
The test system of series [6] is A/Hong Kong/8/1968 (H3N2). Put plainly: microbe, parasite or virus in culture. The conditions noted are these: Influenza A virus, H3N2, MDCK, 72 h, read-out: EC50 against A/Hong Kong/8/1968 (H3N2).
The subject of series [7] is B/Brisbane/60/2008. The series is described as follows: microbe, parasite or virus in culture. The conditions noted are these: Influenza B virus, MDCK, 72 h, read-out: EC50 against B/Brisbane/60/2008.
The subject of series [8] is A/Brisbane/10/2007 (H3N2). The series is described as follows: microbe, parasite or virus in culture. As to conditions: Influenza A virus, H3N2, MDCK, 72 h, read-out: EC50 against A/Brisbane/10/2007 (H3N2).
For series [9], the system named is A/Brisbane/59/2007 (H1N1). As to conditions: MDCK cells.
In series [10] the test system is A/California/7/2009 (H1N1). As to conditions: MDCK cells.
The test system of series [11] is influenza B strain (Lee). The series is described as follows: Chemical library screen, CPE reduction assay, influenza B. Type of series: cell-based, influenza B virus. As to conditions: 20 µM.
The test system of series [12] is A/Seoul/11/1988 (H3N2). The conditions noted are these: MDCK cells.
For series [13], the system named is A/Seoul/11/1988 (H3N2). The series is described as follows: microbe, parasite or virus in culture. As to conditions: Influenza A virus, H3N2, MDCK, 72 h, read-out: EC50 against A/Seoul/11/1988 (H3N2).
The test system of series [14] is A/Perth/16/2009 (H3N2). The series is described as follows: microbe, parasite or virus in culture. The conditions noted are these: Influenza A virus, H3N2, MDCK, 72 h, read-out: EC50 against A/Perth/16/2009 (H3N2).
Series [15] relates to A/Victoria/361/2011-like (H3N2). The series is described as follows: microbe, parasite or virus in culture. The conditions noted are these: Influenza A virus, H3N2, MDCK, 72 h, read-out: EC50 against A/Victoria/361/2011-like (H3N2).
The test system of series [16] is A/Puerto Rico/8/1934 (H1N1). The conditions noted are these: MDCK cells.
Series [17] concerns PR8 virus (viral proteins NP, HA, M1). Type of series: cell-based, influenza A virus. As to conditions: […]; nylidrin 100 μM, OSV-C 10 μM, RBV 100 μM.
Series [18] has as its system B/Lee/40. Put plainly: microbe, parasite or virus in culture. The conditions noted are these: Influenza B virus, MDCK, 72 h, read-out: EC50 against B/Lee/40.

Molecule `CC(CCc1ccccc1)NC(C)C(O)c1ccc(O)cc1` (stereo not shown) [Nylidrin, nylidrin] gave a CC50 at 3 days in series [1] of 549.2 ± 0.5 µM. The EC50 in series [2] was 7.2 ± 0.2 µM; in series [3], 3.5 ± 1.6 µM; in series [5], 1700 ± 500 nM; in [6] it was 12.1 ± 1.6 µM; in series [7], more than 100 µM; in series [8], more than 100 µM. Besides, the EC50 in series [13] is 38.8 ± 19.4 µM; in [14], more than 100 µM; in series [15] it was more than 100 µM; in series [18], more than 100 µM. In addition, the viability at 20 µM in series [4] turned out to be 80%. Further, the “S.I. (CC50/EC50), A/Brisbane/59/2007 (H1N1)” value in [9] is listed as “(156.9)”. In addition, the “S.I. (CC50/EC50), A/California/7/2009 (H1N1)” value in series [10] is “(332.8)”. The CPE-reduction entry in series [11] is listed as “no benefit”. For the same molecule, the “S.I. (CC50/EC50), A/Seoul/11/1988 (H3N2)” value in [12] is on record as “(14.3)”. The “S.I. (CC50/EC50), A/Puerto Rico/8/1934 (H1N1)” value in [16] is recorded as “(76.3)”; in series [16] (listed as nylidrin), 76.3. For the same molecule, in series [17], the “viral proteins NP, HA and M1 (western blot)” value was “not detected”.
